The assay has as its target T1, PIM-1 kinase (Homo sapiens, UniProt P11309).
T1 construct: purchased Millipore 14-573
Briefly: PIM Kinase Activity Assay-IMAP Fluorescence Polarization Assay (PIM-1). Particulars: 3 μM concentration. The format is biochemical. On the procedure: In the present invention, the PIM activities of the compounds were tested by BioDuro (Building E, No. 29 Life Science Park Road, Changping District, Beijing, 102206, P.R. China). The method used for testing is PIM Kinase Activity Assay-IMAP Fluorescence Polarization Assay PIM Kinase Activity Assay-IMAP Fluorescence Polarization Assay 1. Principle PIM kinases are serine/threonine protein kinases, and they can phosphorylate 5-FAM labeled small peptide substrates. Fluorescence polarization is less for non-phosphorylated substrates since that can not bind to the binder (metal binding nanoparticles). On the other hand, fluorescence polarization is more for phosphorylated substrates since that can bind to the binder. The level of 5-FAM labeled small peptide substrates phosphorylation reflects the activities of PIM kinase. By measuring their ability of inhibiting PIM kinase of the compounds of the present invention, their activities of inhibiting PIM kinases can be determined 2. Instrument EnVision (PerkinElmer, Waltham, Mass.) 3. Reagents and 384 well plates PIM1 (Millipore Cat. #14-573) (Millipore Corporation, Billerica, Mass.) PIM2 (Millipore Cat. #14-607) (Millipore Corporation, Billerica, Mass.) 5-FAM labeled peptide (5-FAM-RSRHSSYPAGT, AnaSpec Cat. #63801) (AnaSpec Inc., Fremont, Calif.) IMAP FP Screening Express kit (IMAP FP Screening kit) (Molecular Devices Cat. #R8127) (Molecular Devices, Sunnyvale, Calif.) IMAP Progressive binding reagent IMAP Progressive binding buffer A (5×) IMAP Progressive binding buffer B (5×) 384-well black plate (Corning Cat. #3573) (Corning, Midland Mich.) 4. Assay Buffer
a) 10 mM compound stock solution is diluted to appropriate concentration with 100% DMSO, then diluted 10 fold to targeted concentration with test butter to keep DMSO concentration at 10%
1 ul of compound solution and 4 ul of enzyme (PIM-1 final concentration 0.025 nM, PIM-2 concentration 3 nM) is incubated at 23° C. for 15 min, 2.5 ul ATP (for PIM-1 and PIM-2, the final ATP concentrations are 30 uM and 5 uM respectively) 2.5 ul 5-FAM labeled peptide (final concentration 100 nM) was added to start the reaction. The reaction is run at 23° C. for 60 min DMSO is used in place of compound stock solution as maximum reference and assay buffer is used in place of enzyme as minimum reference. c) add 30 ul IMAP binding reagent (containing 75% IMAP Buffer A, 25% IMAP Buffer B, 1/600 dilution of beads) to stop the reaction, incubated at room temperature for 60 min d) Measure fluorescence polarization, excitation wavelength: 485 nm, emission wavelength 530 nm. 6. Data process IC50 values were calculated using Graphpad Prism®.
On the technique in general: Polarisation of emitted light reports the rotation of a fluorescent probe.

By inhibition is commonly meant the share of the control response that was lost under treatment. A high value points to a response far below the control.

T1 sequence (P11309 whole entry): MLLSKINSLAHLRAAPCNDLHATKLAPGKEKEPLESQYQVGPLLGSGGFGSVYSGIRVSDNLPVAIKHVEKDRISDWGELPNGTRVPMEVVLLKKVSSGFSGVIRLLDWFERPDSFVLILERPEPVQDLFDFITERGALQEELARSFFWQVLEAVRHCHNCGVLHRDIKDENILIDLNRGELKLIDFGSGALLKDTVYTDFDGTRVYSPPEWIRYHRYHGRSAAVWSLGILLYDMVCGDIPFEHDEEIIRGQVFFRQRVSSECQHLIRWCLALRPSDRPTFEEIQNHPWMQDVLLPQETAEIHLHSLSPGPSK

The molecule `O=C(Nc1cnsc1N1CCOCC1)c1csc(C2COc3ccccc3O2)n1` (stereo not shown) [Compound 28, 2-(2,3-dihydrobenzo[b][1,4]dioxin-2-yl)-N-(5-morpholinoisothiazol-4-yl)thiazole-4-carboxamide] showed an inhibition at 3 µM of 20 to 50%.

The molecule `O=C(Nc1cnsc1N1CCNCC1)c1csc(C2COc3ccccc3O2)n1` (stereo not shown) [Compound 40, 2-(2,3-dihydrobenzo[b][1,4]dioxin-2-yl)-N-(5-(piperazin-1-yl)isothiazol-4-yl)thiazole-4-carboxamide] had an inhibition at 3 µM of 20 to 50%.

Molecule `O=C(Nc1cnsc1N1CCOCC1)c1csc(C2CCNCC2)n1` [Compound 26, N-(5-morpholinoisothiazol-4-yl)-2-(piperidin-4-yl)thiazole-4-carboxamide] showed an inhibition at 3 µM of 20 to 50%.

For `Cc1cc(C(=O)Nc2cnsc2N2CCNCC2)nn1-c1ccccc1F` [Compound 41, 1-(2-fluorophenyl)-5-methyl-N-(5-(piperazin-1-yl)isothiazol-4-yl)-1H-pyrazole-3-carboxamide], the inhibition at 3 µM lay within 20 to 50%.

Molecule `CC(C)(C)OC(=O)N1CCC(c2nc(C(=O)Nc3cnsc3N3CCOCC3)cs2)CC1` [Compound 25, tert-butyl 4-(4-((5-morpholinoisothiazol-4-yl)carbamoyl)thiazol-2-yl)piperidine-1-carboxylate] showed an inhibition at 3 µM of 20 to 50%.

`O=C(Nc1cnsc1N1CCc2c(O)cccc2C1)c1cccc(-c2c(F)cccc2F)n1` [Compound 52, 6-(2,6-difluorophenyl)-N-(5-(5-hydroxy-3,4-dihydroisoquinolin-2(1H)-yl)isothiazol-4-yl)picolinamide] showed an inhibition at 3 µM of 20 to 50%.

On to `O=C(Nc1cnsc1N1CCNCC1)c1coc(-c2ccccc2)n1` [Compound 43, 2-phenyl-N-(5-(piperazin-1-yl)isothiazol-4-yl)oxazole-4-carboxamide], for which the inhibition at 3 µM is 20 to 50%.

As to `O=C(Nc1cnsc1N1CCNCC1)c1csc(N2CCOCC2)n1` [Compound 36, 2-morpholino-N-(5-(piperazin-1-yl)isothiazol-4-yl)thiazole-4-carboxamide], the inhibition at 3 µM lay within 20 to 50%.

In the case of `O=C(Nc1cnsc1N1CCNCC1)c1cc(-c2ccccc2F)n[nH]1` [Compound 42, 3-(2-fluorophenyl)-N-(5-(piperazin-1-yl)isothiazol-4-yl)-1H-pyrazole-5-carboxamide], the inhibition at 3 µM lay in the range of 20 to 50%.

With `CC(=O)Nc1nc(C(=O)Nc2cnsc2N2CCNCC2)cs1` [Compound 39, 2-acetamido-N-(5-(piperazin-1-yl)isothiazol-4-yl)thiazole-4-carboxamide], the inhibition at 3 µM fell in the range of 20 to 50%.

The values above are taken from patent US8969584B2, “PIM kinase inhibitors and preparation methods and use in medicinal manufacture thereof” (Jikai Biosciences, Inc., priority 2011, dated 2015).
